Results as given in patent US20070173787A1, “Thin-film nitinol based drug eluting stent” (priority 2005, published 2007).

Columns and labels:
[1] = test system: human coronary artery smooth muscle cells; experiment: Anti-proliferative activity in synchronized cultured human coronary artery smooth muscle cells stimulated with two percent fetal bovine serum; format: cell-based
From the text: The multiple curves represent various concentrations of topotecan ranging from zero to three hundred nanomolar concentrations.
The multiple curves represent various concentrations of etoposide ranging from zero to eight hundred nanomolar concentrations.
The multiple curves represent various concentrations of Panzem® ranging from zero to 100 micromolar concentrations.

[2] = test system: human coronary artery smooth muscle cell; settings: concentrations up to 30,000.00 nanomolar, FIG. 69
From the text: In vitro cytotoxicity tests or assays may be utilized to determine if drugs, agents and/or compounds are potentially toxic and the level of toxicity. Essentially, in vitro cytotoxicity assays determine acute necrotic effects by a drug causing direct cellular damage. The idea behind these assays is that toxic chemicals affect basic functions of cells which are common to all cells. […] There are a number of different assays that may be utilized. In the present invention, the cytotoxicity assay utilized is based upon the measurement of cellular metabolic activity. A reduction in metabolic activity is an indication of cellular damage. Tests that can measure metabolic function measure cellular ATP levels or mitochondrial activity via MTS metabolism. FIG. 69 is a graphical representation of the results of an MTS assay of Panzem®.

[3] = test system: platelet deposition and thrombus formation on the stent surface; experiment: In vitro bovine blood loop model (In 111 labeled platelets); settings: FIG. 83
From the text: The anti-thrombotic efficacy of the above-described three configurations is illustrated in FIG. 83. FIG. 83 illustrates the anti-thrombotic properties of the sirolimus/cilostazol combination coatings described above in an in vitro bovine blood loop model. In the in vitro bovine blood loop model, fresh bovine blood is heparinized to adjust for acute clotting time (ACT) of about two hundred (200) seconds. The platelet content in the blood is labeled through the use of Indium 111. In the study, a stent is deployed in a silicone tube, which is part of a closed loop system for blood circulation. The heparinzed blood is circulated through the closed loop system by means of a circulating pump. Blood clots and thrombus builds up on a stent surface over time and reduces the flow rate of blood through the stented loop. […] The control drug eluting stent is the Cypher® sirolimus eluting coronary stent available from Cordis Corporation. Bar 8304 is a stent coated with heparin and is available from Cordis Corporation under the […]® on the Bx Velocity® coronary stent trademark. Bar 8306 is a stent configured as set forth with respect to the architecture illustrated in FIG. 76. Bar 8308 is a stent configured as set forth with respect to the architecture illustrated in FIG. 80. Bar 8310 is a stent configured as set forth with respect to the architecture illustrated in FIG. 82.

[4] = In vivo release kinetics from stent coatings in porcine pharmacokinetics studies; settings: after eight (8) days of implantation; single layer sirolimus/cilostazol EVA/BMA coating with 100 μg BMA overcoat (FIG. 86), FIG. 84
From the text: The topcoat is two hundred micro grams.
The basecoat is applied to Bx Velocity® stents and implanted into Yorkshire pigs.
Another critical parameter for the performance of the thrombus resistance of a device coated with cilostazol is the duration of the drug release from the coating. This is of particular significance in the two weeks after device implantation. […] The purpose of the porcine PK study is to assess the local pharmacokinetics of a drug eluting stent at a given implantation time. Normally three stents are implanted in three different coronary arteries in a pig for a given time point and then retrieved for total drug recovery analysis. The stents are retrieved at predetermined time points; namely, 1, 3 and 8 days. The stents are extracted and the total amount of drug remaining on the stents is determined by analysis utilizing HPLC (high performance liquid chromatography) for total drug amount. The difference between the original amount of drug on the stent and the amount of drug retrieved at a given time represents the amount of drug released in that period. The continuous release of drug into surrounding arterial tissue is what prevents the neointimal growth and restenosis in the coronary artery. A normal plot represents the percentage of total drug released (%, y-axis) vs. time of implantation (day, x-axis). […] In this exemplary configuration, the stent 8600 is coated with two layers. The first layer 8602 comprises a combination of sirolimus, cilostazol and a copolymer matrix of EVA/BMA. The second layer or diffusion overcoat 8604 comprises only BMA. More specifically, in this embodiment, the first layer 8602 comprises a combination of sirolimus and cilastazol that is forty-five (45) percent by weight of the total weight of the first layer 8602 and an EVA/BMA copolymer matrix that is fifty-five (55) percent by weight of the total weight of the first layer 8602. The diffusion overcoat comprises one hundred (100 μg) micrograms of BMA.
Pigs are an established animal species for intravascular stent studies and accepted for such studies by the appropriate regulatory agencies. This in vivo study utilized male pigs of the species Sus Scrofa and strain Yoorkshire pigs. S.M.A.R.T.™ stents, available from Cordis Corporation, were placed into the iliac and femoral arteries, PALMAZ® GENESIS™ stents, available from Cordis Corporation, were placed in the renal arteries and CYPHER™ stents, available from Cordis Corporation, were placed in the coronary arteries.

COc1cc2c(cc1O)CC[C@@H]1[C@@H]2CC[C@]2(C)[C@@H](O)CC[C@@H]12 [Panzem®, 2-methoxyestradiol]
anti-proliferative activity ([1]; FIG. 66): extremely effective inhibitor of human coronary artery smooth muscle cell proliferation in vitro | effect of addition on the anti-proliferative rapamycin dose response curve ([1]; topotecan to 300 nanomolar (FIG. 64), etoposide to eight hundred nanomolar (FIG. 65), Panzem to 100 micromolar (FIG. 68)): increases the percent of inhibition of rapamycin alone | cytotoxicity, MTS assay (cell survival) [2]: do not reduce human coronary artery smooth muscle cell survival

O=C1CCc2cc(OCCCCc3nnnn3C3CCCCC3)ccc2N1 [cilostazol, 6[4-(1-cyclohexyl-1H-tetrazol-5-yl)-butoxy]-3,4-dihydro-2-(1H)-quinolinone]
thrombus formation [3]: significantly reduces thrombus formation | drug remaining in the drug coating [4]: ~80%
